Assay results: patent US20160213742A1, “COMPOSITIONS AND METHODS FOR THE TREATMENT OF FUNGAL INFECTIONS” (priority 2013, published 2016)
≈ marks a conversion by molar mass, not a printed value. Read-outs that look alike come from different tables or passages of the source.

Tests used:
Assay type in all cases: cell-based
[1] = test system: C. krusei ATCC 14243; experiment: microbe, parasite or virus in culture
Description: (§1) The test organisms consisted of strains from the Micromyx collection. Reference isolates were originally received from the American Type Culture Collection (ATCC; Manassas, Va.). Organisms received at Micromyx were initially streaked for isolation on Sabouraud dextrose or potato dextrose agar. Colonies were picked by swab from the medium and resuspended in the appropriate broth containing cryoprotectant. The suspensions were aliquoted into cryogenic vials and maintained at −80° C. Prior to testing, Candida isolates were streaked from the frozen vials on Sabouraud dextrose agar. The yeast isolates were incubated at overnight at 35° C. before use. The fungal isolates were incubated at least 7 days on Sabouraud dextrose agar slants at 35° C. before harvesting.
(§2) Isolates were tested in RPMI medium (Catalog No. SH30011.04; Lot No. AWA92121B; HyClone Labs, Logan, Utah) which was prepared according to CLSI guidelines. The pH of the medium was adjusted to 7.0 with 1 N NaOH. The medium was sterile filtered using a 0.2 μm PES filter and stored at 4° C. until used.
(§3) The MIC assay method employed automated liquid handlers to conduct serial dilutions and liquid transfers. Automated liquid handlers included the Multidrop 384 (Labsystems, Helsinki, Finland), Biomek 2000 and Biomek FX (Beckman Coulter, Fullerton Calif.). The wells in columns 2-12 in standard 96-well microdilution plates (Costar 3795) were filled with 150 μl of the correct diluent (50% DMSO for investigational compounds, 100% DMSO for comparator compounds). These would become the mother plates' from which ‘daughter’ or test plates would be prepared. Stocks were diluted to 40× the desired top concentration in the test plates in the indicated solvent, and 300 μL of the 40× stock was dispensed into the appropriate well in Column 1 of the mother plates. The Biomek 2000 was used to make serial serial 2-fold dilutions through Column 11 in the “mother plate”. The wells of Column 12 contained no drug and served as the organism growth control wells.
(§4) The daughter plates were loaded with 185 μL per well of RPMI described above using the Multidrop 384. The daughter plates were prepared using the Biomek FX which transferred 5 μL of drug solution from each well of a mother plate to the corresponding well of the daughter plate in a single step.
(§5) A standardized inoculum of each organism was prepared. For Candida, colonies were picked from the streak plate and a suspension was prepared in RPMI medium equal to a 0.5 McFarland standard, then diluted 1:100 in RPMI and transferred to compartments of sterile reservoirs divided by length (Beckman Coulter). For the Aspergillus isolates, previously prepared and quantitated suspensions were used to make dilutions in RPMI to reach 20× the final concentration. These dilutions were also transferred to compartments of sterile reservoirs divided by length (Beckman Coulter). The final concentration of the Aspergillus isolates was approximately 0.2-2.5×10^4 CFU/mL.
(§6) The Biomek 2000 was used to inoculate the plates. Daughter plates were placed on the Biomek 2000 work surface reversed so that inoculation took place from low to high drug concentration. The Biomek 2000 delivered 10 μL of standardized inoculum into each well. Thus, the wells of the daughter plates ultimately contained 185 μL of RPMI, 5 μL of drug solution, and 10 μL of inoculum. The final concentration of DMSO in the test well was 2.5% for the evaluated comparators and 1.25% for the investigational agents.
(§7) Plates were stacked 3 high, covered with a lid on the top plate, placed into plastic bags, and incubated at 35° C. for approximately 24-48 hr prior to reading. Plates were read when inoculum was confluent in growth wells. Plates were viewed from the bottom using a plate viewer. […] MICs were read where visible growth of the organism was inhibited. MECs were read where the growth shifted to a small, rounded, compact hyphal form as compared to the hyphal growth seen in the growth control well.

[2] = test system: C. parapsilosis ATCC 22019; experiment: microbe, parasite or virus in culture
Description: as §1, §2, §3, §4, §5, §6, §7

[3] = test system: C. glabrata ATCC 90030; experiment: microbe, parasite or virus in culture
Description: as §1, §2, §3, §4, §5, §6, §7

[4] = test system: C. albicans ATCC 90028; experiment: microbe, parasite or virus in culture
Description: as §1, §2, §3, §4, §5, §6, §7

[5] = test system: A. fumigatus ATCC 13073; experiment: MEC assay (Example 31); settings: RPMI pH 7.0, 35° C., 24-48 hr
Description: as §1, §2, §3, §4, §5, §6, §7

[6] = test system: A. fumigatus MX 5944; experiment: MEC assay (Example 31); settings: RPMI pH 7.0, 35° C., 24-48 hr
Description: as §1, §2, §3, §4, §5, §6, §7

[7] = test system: A. fumigatus MYA-3626; experiment: MEC assay (Example 31); settings: RPMI pH 7.0, 35° C., 24-48 hr
Description: as §1, §2, §3, §4, §5, §6, §7

[8] = test system: A. flavus MX 5948; experiment: MEC assay (Example 31); settings: RPMI pH 7.0, 35° C., 24-48 hr
Description: as §1, §2, §3, §4, §5, §6, §7

[9] = test system: A. fumigatus MYA-4609; experiment: MEC assay (Example 31); settings: RPMI pH 7.0, 35° C., 24-48 hr
Description: as §1, §2, §3, §4, §5, §6, §7

Row | MIC ([1]; ATCC 14243, pH 7) [µg/mL] | MIC ([2]; ATCC 22019, pH 7) [µg/mL] | MIC ([3]; ATCC 90030, pH 7) [µg/mL] | MIC ([4]; ATCC 90028, pH 7) [µg/mL] | MIC ([2]; C. parapsilosis ATCC 22019, RPMI pH 7.0, 35° C., 24-48 hr) [µg/mL] | MIC ([1]; Pichia kudriavzevii, ATCC14243, C. krusei ATCC 14243, RPMI pH 7.0, 35° C., 24-48 hr, read-out: MIC) [µg/mL] | MIC ([2]; Lodderomyces parapsilosis, ATCC22019, C. parapsilosis ATCC 22019, RPMI pH 7.0, 35° C., 24-48 hr, read-out: MIC) [µg/mL] | MIC ([3]; Nakaseomyces glabratus, ATCC90030, C. glabrata ATCC 90030, RPMI pH 7.0, 35° C., 24-48 hr, read-out: MIC) [µg/mL] | MIC ([4]; Candida albicans, ATCC90028, C. albicans ATCC 90028, RPMI pH 7.0, 35° C., 24-48 hr, read-out: MIC) [µg/mL] | Compound | MEC [5] | MEC [6] [µg/mL] | MEC [7] [µg/mL] | MEC [8] [µg/mL] | MEC [9] [µg/mL]
1 |  |  | 8 (≈ 5.05 µM) | 2 (≈ 1.26 µM) | >16 to 32 |  |  |  |  | CC[C@H](C)C[C@H](C)CCCCCCCCC(=O)N[C@H]1C[C@@H](O)[C@@H](OCCNC(=O)CCNC(=O)[C@H](Cc2ccccc2)NC(=O)[C@H](CC(C)C)NC(=O)[C@H](CCSC)NC=O)NC(=O)[C@@H]2[C@@H](O)CCN2C(=O)[C@H]([C@H](O)CCN)NC(=O)[C@H]([C@H](O)[C@@H](O)c2ccc(O)cc2)NC(=O)[C@@H]2C[C@@H](O)CN2C(=O)[C@H]([C@@H](C)O)NC1=O [Compound 9] | 0.06 to 0.12 µg/mL | 0.12 | 0.12 | 0.06 to 0.12 | 0.06 to 0.5
2 | 16 (≈ 10.1 µM) | 32 (≈ 20.2 µM) | 8 (≈ 5.05 µM) | 2 (≈ 1.26 µM) |  |  |  |  |  | CC[C@H](C)C[C@H](C)CCCCCCCCC(=O)N[C@H]1C[C@@H](O)[C@@H](OCCN)NC(=O)[C@@H]2[C@@H](O)CCN2C(=O)[C@H]([C@H](O)CCNC(=O)CCNC(=O)[C@H](Cc2ccccc2)NC(=O)[C@H](CC(C)C)NC(=O)[C@H](CCSC)NC=O)NC(=O)[C@H]([C@H](O)[C@@H](O)c2ccc(O)cc2)NC(=O)[C@@H]2C[C@@H](O)CN2C(=O)[C@H]([C@@H](C)O)NC1=O [Compound 10] | 0.25 µg/mL | 0.12 | 0.12 | 0.12 | 0.12

The next lines start with the compound.

Row | Compound | MIC ([1]; ATCC 14243, pH 7) [µg/mL] | MIC ([2]; ATCC 22019, pH 7) [µg/mL] | MIC ([3]; ATCC 90030, pH 7) [µg/mL] | MIC ([4]; ATCC 90028, pH 7) [µg/mL] | MIC ([2]; C. parapsilosis ATCC 22019, RPMI pH 7.0, 35° C., 24-48 hr) [µg/mL] | MIC ([1]; Pichia kudriavzevii, ATCC14243, C. krusei ATCC 14243, RPMI pH 7.0, 35° C., 24-48 hr, read-out: MIC) [µg/mL] | MIC ([2]; Lodderomyces parapsilosis, ATCC22019, C. parapsilosis ATCC 22019, RPMI pH 7.0, 35° C., 24-48 hr, read-out: MIC) [µg/mL] | MIC ([3]; Nakaseomyces glabratus, ATCC90030, C. glabrata ATCC 90030, RPMI pH 7.0, 35° C., 24-48 hr, read-out: MIC) [µg/mL] | MIC ([4]; Candida albicans, ATCC90028, C. albicans ATCC 90028, RPMI pH 7.0, 35° C., 24-48 hr, read-out: MIC) [µg/mL] | MEC [5] | MEC [6] [µg/mL] | MEC [7] [µg/mL] | MEC [8] [µg/mL] | MEC [9] [µg/mL]
3 | CC[C@H](C)C[C@H](C)CCCCCCCCC(=O)N[C@H]1C[C@@H](O)[C@@H](NCCN)NC(=O)[C@@H]2[C@@H](O)CCN2C(=O)[C@H]([C@H](O)CCNC(=O)CCNC(=O)[C@H](Cc2ccccc2)NC(=O)[C@H](CC(C)C)NC(=O)[C@H](CCSC)NC(=O)OCC(C)C)NC(=O)[C@H]([C@H](O)[C@@H](O)c2ccc(O)cc2)NC(=O)[C@@H]2C[C@@H](O)CN2C(=O)[C@H]([C@@H](C)O)NC1=O [Compound 5] | >4 | >4 | 4 (≈ 2.42 µM) | 2 (≈ 1.21 µM) |  |  |  |  |  |  |  |  |  | 
4 | CC[C@H](C)C[C@H](C)CCCCCCCCC(=O)N[C@H]1C[C@@H](O)[C@@H](NCCN)NC(=O)[C@@H]2[C@@H](O)CCN2C(=O)[C@H]([C@H](O)CCNC(=O)[C@H](CCCCN)NC=O)NC(=O)[C@H]([C@H](O)[C@@H](O)c2ccc(O)cc2)NC(=O)[C@@H]2C[C@@H](O)CN2C(=O)[C@H]([C@@H](C)O)NC1=O [Compound 25] | 2 (≈ 1.6 µM) | 1 (≈ 0.8 µM) | 0.5 (≈ 0.4 µM) | 0.12 (≈ 0.096 µM) |  |  |  |  |  |  |  |  |  | 
5 | C[C@@H](c1ncncc1F)[C@](O)(Cn1cncn1)c1ccc(F)cc1F [voriconazole, reference compound] |  |  |  |  |  | 0.25 to 1 (≈ 0.716 to 2.86 µM) | 0.03 to 0.06 (≈ 0.0859 to 0.172 µM) | 0.12 to 0.25 (≈ 0.344 to 0.716 µM) | 0.06 to 0.5 (≈ 0.172 to 1.43 µM) | 0.012-0.5^ μg/mL | 0.12 to 0.25 | 0.12 to 0.5 | 0.25 to 2 | 0.25 to 0.5
